Results on ten compounds are retold here after patent US20260125375A1 (Pfizer Inc., priority 2022, published 2026).

One assay addresses T1, CBL-B (residues 36-427) (Homo sapiens, UniProt Q13191).
T1 construct: Purified CBL-B (residues 36-427) and C-CBL (residues 46-435) proteins from baculovirus-infected insect cells; made in house; host or cells: baculovirus-infected insect cells
Description: Ligand Displacement Assay (LDA), HTRF competitive binding against BODIPY-labeled fluorescent tracer, CBL-B. The note with it: geometric mean of the number of tests, read-out: CBL-B Ki (nM) GMean. The method, boiled down: (§1)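 First, the insect-cell-expressed protein is biotinylated at its amino-terminal AviTag with BirA and coupled to SA-Tb. Next, the tracer KD is determined for each protein. Finally, compounds are titrated three-fold in duplicate […], at 2% DMSO, and Ki is reported as a geometric mean.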
In general terms: In TR-FRET formats the signal depends on donor and acceptor labels being close together.

A further assay deals with T2, C-CBL (residues 46-435) (Homo sapiens, UniProt P22681).
T2 construct: Purified CBL-B (residues 36-427) and C-CBL (residues 46-435) proteins from baculovirus-infected insect cells; made in house; host or cells: baculovirus-infected insect cells
T2 sequence (P22681 46-435): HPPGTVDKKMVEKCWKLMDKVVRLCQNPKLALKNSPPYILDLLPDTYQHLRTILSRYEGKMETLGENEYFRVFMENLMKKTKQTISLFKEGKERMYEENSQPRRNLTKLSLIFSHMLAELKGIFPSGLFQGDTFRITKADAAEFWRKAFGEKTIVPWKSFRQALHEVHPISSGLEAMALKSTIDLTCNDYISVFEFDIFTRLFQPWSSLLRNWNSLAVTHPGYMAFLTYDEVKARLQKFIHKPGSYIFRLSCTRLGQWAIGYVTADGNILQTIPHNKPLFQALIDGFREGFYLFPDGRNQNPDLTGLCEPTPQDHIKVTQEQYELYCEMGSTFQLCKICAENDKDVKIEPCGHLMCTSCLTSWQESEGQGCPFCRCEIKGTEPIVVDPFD
The assay is described as follows: Ligand Displacement Assay (LDA), HTRF competitive binding against BODIPY-labeled fluorescent tracer, C-CBL. The note with it: geometric mean of the number of tests, read-out: C-CBL Ki (nM) GMean. The method, boiled down:
as §1

A further assay concerns the target T3, CBL-B (Homo sapiens, UniProt Q13191).
T3 construct: endogenous in cells; host or cells: Jurkat HiBit-IL2 reporter cells, C-CBL knocked out by CRISPR
The assay is described as follows: Jurkat HiBit-IL2 assay (c-CBL KO), reporter cell line expressing CBL-B only. It is filed as cell-based. The note with it: geometric mean, read-out: C-CBL KO EC50 (nM) GMean. The source says:
(§2) Jurkat HiBit-IL2 Assay (WT, c-CBL KO, CBL-B KO)
(§3) The purpose of the Jurkat HiBit-IL2 assay is to evaluate the effect of the inhibition of CBL-B and/or C-CBL on TCR/CD28 stimulated interleukin-2 (IL-2) secretion.
(§4) The expression of IL-2 can then be accurately measured by HiBit luciferase assay. Further, C-CBL or CBL-B was knocked out by CRISPR respectively in this Jurkat HiBit-IL2 reporter cell line to create reporter cell line expressing CBL-B only (c-CBL knockout (KO)) or C-CBL only (CBL-B KO).
(§5) All three reporter cell lines were maintained in RPMI-1640 media with GlutaMax, 10% fetal bovine serum, 100 units/ml of penicillin, and 100 μg/ml of streptomycin at 37° C., 5% CO2, at a cell density 1×10e5-2×10e6 viable cells/ml. Serial diluted compounds in DMSO (40 nl/well, final 0.1% DMSO in assay cell culture) were plated into 384-well white-wall clear-bottom cell culture plates. Reporter cells were pelleted and resuspended in fresh cell culture medium to 0.66×10e6 cells/ml and added to the assay plate at 30 μl/well (20,000 cells/well). The cells were incubated with compounds for 1 hour at 37° C., 5% CO2. 10 μl/well of anti-CD3 antibody (OKT3) and anti-CD28 antibody (CD28.2) prediluted in fresh cell culture medium at 4× final concentration (anti-CD3 mAb: 4 μg/ml; anti-CD28 mAb: 8 μg/ml) was added into the cells (final concentration of anti-CD3 mAb: 1 μg/ml; anti-CD28 mAb: 2 μg/ml). The cells were cultured for another 4 hours at 37° C., 5% CO2. The Nano-Glo HiBiT Lytic Reagent was prepared following the manufacturer's protocol. 20 ul/well of the Nano-Glo HiBiT Lytic Reagent was added into the reporter cell culture assay plate and incubated at room temperature (20-25° C.) for 15 minutes. The plates were read on a Perkin-Elmer EnVision plate reader with 0.1 second integration time. Data were normalized to “Fold of Effect” with the anti-CD3 and anti-CD28 antibodies only samples as the baseline activation level and EC50 was calculated. The EC50 (nM) values reported are the geometric means (GMean) of the number of tests conducted.
On the technique in general: With HiBiT, luminescence reflects the tagged protein that the partner subunit can reach.

The target in the next assay is T4, C-CBL (Homo sapiens, UniProt P22681).
T4 construct: endogenous in cells; host or cells: Jurkat HiBit-IL2 reporter cells, CBL-B knocked out by CRISPR
Description: Jurkat HiBit-IL2 assay (CBL-B KO), reporter cell line expressing C-CBL only. It is filed as cell-based. The note with it: geometric mean, read-out: CBL-B KO EC50 (nM) GMean.
Description: as §2, §3, §4, §5

Setting [1] is: C-CBL KO (expressing CBL-B only), Table 16b (further repetition).
Where [2] appears, read: c-CBL KO (CBL-B only), anti-CD3/anti-CD28 stimulation 4 hours, Table 16a.
[3] abbreviates: CBL-B KO (C-CBL only), anti-CD3/anti-CD28 stimulation 4 hours, Table 16a.
[4] abbreviates: CBL-B KO (expressing C-CBL only), Table 16b (further repetition).

Usually Ki stands for the equilibrium dissociation constant of an inhibitor or competing ligand from its target. In general, EC50 refers to the midpoint of the concentration-response curve.

Like-named read-outs stand apart in the source and are kept apart here.

Take `C[C@H](NC[C@@H](C)O)c1nc(C(F)(F)F)cc2c(-c3cccc([C@H](c4nncn4C)C4CCC4)c3)n[nH]c12` (single isomer, unassigned) [Example D25]: the Ki on CBL-B (residues 36-427) worked out at 6.4 nM; at C-CBL (residues 46-435), 51.1 nM. The EC50 on CBL-B (setting [1]) is 101 nM; at CBL-B (setting [2]), 20 nM; at C-CBL (setting [3]), 174 nM; on C-CBL (setting [4]), 359 nM.
For the compound `CC(NC[C@H](C)O)c1nc(C(F)(F)F)cc2c(-c3cccc([C@H](c4nncn4C)C4CCCCC4)c3)n[nH]c12` (single isomer, unassigned) [Example C100], the Ki at CBL-B (residues 36-427) stood at 2.8 nM; on C-CBL (residues 46-435) it was 40.4 nM. Moreover, the EC50 on CBL-B (setting [1]) is 110 nM; on C-CBL (setting [4]) it was 1410 nM.
The matching figures for `C[C@@H](N[C@@H]1CC[C@H](O)C1)c1nc(C(F)(F)F)cc2c(-c3cccc([C@H](c4nncn4C)C4CCC4)c3)n[nH]c12` [Example C118, (1S,3R)-3-({(1R)-1-[3-{3-[(R)-cyclobutyl(4-methyl-4H-1,2,4-triazol-3-yl)methyl]phenyl}-5-(trifluoromethyl)-1H-pyrazolo[3,4-c]pyridin-7-yl]ethyl}amino)cyclopentanol]: 2.1 nM, 25.5 nM, 46 nM and 338 nM.
The matching figures for `CC(NCC(C)(C)O)c1nc(C(F)(F)F)cc2c(-c3cccc([C@H](c4nncn4C)C4CCC4)c3)n[nH]c12` (single isomer, unassigned) [Example C117]: 7.9 nM, 83.6 nM, 170 nM and 794 nM.
Consider `C[C@@H](O)CN[C@H](C)c1nc(C(F)(F)F)cc2c(-c3cccc([C@H](c4nncn4C)C4CCC4)c3)n[nH]c12` (single isomer, unassigned) [Example D26], for which the Ki on CBL-B (residues 36-427) was 1.8 nM; at C-CBL (residues 46-435), 14 nM. Also, the EC50 amounted to 30 nM on CBL-B (setting [1]), 9 nM at CBL-B (setting [2]), 122 nM on C-CBL (setting [3]) and 180 nM at C-CBL (setting [4]).
In the case of `C[C@@H](NC1CC[C@H]1O)c1nc(C(F)(F)F)cc2c(-c3cccc([C@H](c4nncn4C)C4CCC4)c3)n[nH]c12` (single isomer, unassigned) [Example D31], the Ki was found to be 4 nM on CBL-B (residues 36-427) and 27.3 nM at C-CBL (residues 46-435). Moreover, the EC50 was 56 nM on CBL-B (setting [1]), 16 nM on CBL-B (setting [2]), 199 nM at C-CBL (setting [3]) and 258 nM on C-CBL (setting [4]).
As to `CC(NCC(C)(C)O)c1nc(C(F)(F)F)cc2c(-c3cccc([C@H](c4nncn4C)C4CCC4)c3)n[nH]c12` (single isomer, unassigned) [Example C45], the Ki on CBL-B (residues 36-427) is 2.5 nM; on C-CBL (residues 46-435), 22.1 nM. Further, the EC50 at CBL-B (setting [1]) amounted to 30 nM; on CBL-B (setting [2]), 14 nM; on C-CBL (setting [3]), 102 nM; on C-CBL (setting [4]), 115 nM.
In the case of `C[C@@H](N[C@@H]1CC[C@@H]1O)c1nc(C(F)(F)F)cc2c(-c3cccc([C@H](c4nncn4C)C4CCC4)c3)n[nH]c12` (single isomer, unassigned) [Example D29], the Ki on CBL-B (residues 36-427) was determined as 1.9 nM; at C-CBL (residues 46-435) it was 23.7 nM. For the same compound, the EC50 was 36 nM at CBL-B (setting [1]), 11 nM on CBL-B (setting [2]), 139 nM on C-CBL (setting [3]) and 224 nM on C-CBL (setting [4]).
Take `CC[C@H](c1cccc(-c2n[nH]c3c([C@H](C)NC[C@H](C)O)nc(C(F)(F)F)cc23)c1)c1nncn1C` (single isomer, unassigned) [Example D76]: the Ki on CBL-B (residues 36-427) worked out at 0.7 nM; at C-CBL (residues 46-435) it was 2.9 nM. The EC50 on CBL-B (setting [1]) was found to be 20 nM; on C-CBL (setting [4]), 39 nM.
The corresponding values for `CC(C)[C@H]1CNCCN1Cc1nc(C(F)(F)F)cc2c(-c3cccc([C@H](c4nncn4C)C4CCC4)c3)n[nH]c12` [Example D36] are 1.4 nM, 16.4 nM, 52 nM and 454 nM.
